Assay [1] has as its target Fibroblast growth factor receptor 3 (Homo sapiens, UniProt P22607). The assay can be described thus: Selectivity interaction (ProQinase) EUB0000171b FGFR3. The note with it: at 1 µM.
The target of assay [2] is Ephrin type-A receptor 5 (Homo sapiens) (UniProt P54756). Conditions: at 10 µM.
The target in assay [3] is T1, Dual specificity mitogen-activated protein kinase kinase 6 (Homo sapiens) (UniProt P52564).
T1 sequence (whole entry): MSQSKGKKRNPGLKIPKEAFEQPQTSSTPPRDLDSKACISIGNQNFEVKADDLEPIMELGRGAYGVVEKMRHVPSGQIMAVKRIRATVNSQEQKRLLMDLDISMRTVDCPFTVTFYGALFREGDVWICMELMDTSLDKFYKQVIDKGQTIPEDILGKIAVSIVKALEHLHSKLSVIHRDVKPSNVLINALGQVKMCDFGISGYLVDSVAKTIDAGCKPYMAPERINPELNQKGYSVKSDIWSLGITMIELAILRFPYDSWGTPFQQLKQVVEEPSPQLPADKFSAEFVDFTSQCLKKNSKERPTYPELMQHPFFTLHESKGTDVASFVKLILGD
The assay can be described thus: Selectivity interaction (Ambit KINOMEscan and KiNATiv profiling in Jurkat cells) EUB0000090b MAP2K6. The class given is cell-based. The note with it: at 1 µM.

In assay [4] the target is Casein kinase I isoform delta (Homo sapiens, UniProt P48730). The assay can be described thus: Selectivity interaction (Millipore kinase profiler) EUB0000124b CSNK1D. Conditions: at 10 µM.
The target of assay [5] is Serine/threonine-protein kinase SIK1 (Homo sapiens) (UniProt P57059). The assay can be described thus: Selectivity interaction (KinomeScan (DiscoverX)) EUB0000092b SIK1. Conditions: at 10 µM.
Assay [6] concerns the target Calcium/calmodulin-dependent protein kinase type 1 (Homo sapiens) (UniProt Q14012). Put plainly: Selectivity interaction (KinomeScan (DiscoverX)) EUB0000092b CAMK1. Conditions: at 10 µM.
In assay [7] the target is T2, Serine/threonine-protein kinase STK11 (Homo sapiens) (UniProt Q15831).
T2 sequence (whole entry): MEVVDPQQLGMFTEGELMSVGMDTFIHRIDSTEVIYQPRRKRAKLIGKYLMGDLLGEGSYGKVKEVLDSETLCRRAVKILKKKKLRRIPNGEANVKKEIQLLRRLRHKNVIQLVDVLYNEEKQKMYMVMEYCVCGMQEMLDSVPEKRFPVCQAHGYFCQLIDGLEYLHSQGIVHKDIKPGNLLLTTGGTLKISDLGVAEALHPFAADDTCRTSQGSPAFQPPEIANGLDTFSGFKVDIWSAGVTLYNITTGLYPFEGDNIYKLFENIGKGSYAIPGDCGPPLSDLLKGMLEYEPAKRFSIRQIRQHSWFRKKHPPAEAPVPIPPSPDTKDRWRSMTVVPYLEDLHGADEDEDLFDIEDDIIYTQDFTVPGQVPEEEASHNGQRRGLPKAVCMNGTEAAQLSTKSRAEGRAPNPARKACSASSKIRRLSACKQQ
The assay can be described thus: Selectivity interaction (KinomeScan (DiscoverX)) EUB0000695a STK11. The note with it: at 100 nM.

The target of assay [8] is T3, Tyrosine-protein kinase JAK3 (Homo sapiens, UniProt P52333).
T3 sequence (P52333 whole entry): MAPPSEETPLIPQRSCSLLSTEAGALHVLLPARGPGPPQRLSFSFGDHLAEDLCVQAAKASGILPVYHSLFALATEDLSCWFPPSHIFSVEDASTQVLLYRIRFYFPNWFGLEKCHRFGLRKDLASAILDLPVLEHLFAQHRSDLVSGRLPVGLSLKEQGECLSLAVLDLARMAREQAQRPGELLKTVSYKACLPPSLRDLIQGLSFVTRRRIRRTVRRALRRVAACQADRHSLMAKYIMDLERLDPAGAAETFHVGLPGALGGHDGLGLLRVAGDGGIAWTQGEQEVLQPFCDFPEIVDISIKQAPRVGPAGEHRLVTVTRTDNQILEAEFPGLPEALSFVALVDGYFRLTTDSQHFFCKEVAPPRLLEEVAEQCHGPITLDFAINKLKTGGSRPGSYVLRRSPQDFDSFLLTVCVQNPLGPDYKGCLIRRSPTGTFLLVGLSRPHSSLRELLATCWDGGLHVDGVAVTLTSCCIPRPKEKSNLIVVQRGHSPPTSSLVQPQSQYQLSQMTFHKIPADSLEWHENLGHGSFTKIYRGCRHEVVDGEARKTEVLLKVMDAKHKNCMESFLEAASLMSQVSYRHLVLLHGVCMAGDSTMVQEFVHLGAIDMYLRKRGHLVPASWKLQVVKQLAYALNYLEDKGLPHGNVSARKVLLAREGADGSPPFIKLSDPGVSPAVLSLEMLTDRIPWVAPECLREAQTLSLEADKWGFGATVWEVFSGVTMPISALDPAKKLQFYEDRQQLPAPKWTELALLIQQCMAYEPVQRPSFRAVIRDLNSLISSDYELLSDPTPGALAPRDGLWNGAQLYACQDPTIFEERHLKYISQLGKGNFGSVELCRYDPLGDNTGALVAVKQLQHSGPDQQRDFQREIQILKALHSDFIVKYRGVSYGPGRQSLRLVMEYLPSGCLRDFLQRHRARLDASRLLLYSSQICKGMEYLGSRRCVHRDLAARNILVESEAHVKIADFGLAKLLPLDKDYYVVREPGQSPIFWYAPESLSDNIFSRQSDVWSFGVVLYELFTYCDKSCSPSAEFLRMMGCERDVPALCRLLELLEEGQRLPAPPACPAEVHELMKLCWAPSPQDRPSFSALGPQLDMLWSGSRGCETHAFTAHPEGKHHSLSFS

Structures are written as SMILES.

Ephrin type-A receptor 5 (Homo sapiens), sequence (P54756 whole entry): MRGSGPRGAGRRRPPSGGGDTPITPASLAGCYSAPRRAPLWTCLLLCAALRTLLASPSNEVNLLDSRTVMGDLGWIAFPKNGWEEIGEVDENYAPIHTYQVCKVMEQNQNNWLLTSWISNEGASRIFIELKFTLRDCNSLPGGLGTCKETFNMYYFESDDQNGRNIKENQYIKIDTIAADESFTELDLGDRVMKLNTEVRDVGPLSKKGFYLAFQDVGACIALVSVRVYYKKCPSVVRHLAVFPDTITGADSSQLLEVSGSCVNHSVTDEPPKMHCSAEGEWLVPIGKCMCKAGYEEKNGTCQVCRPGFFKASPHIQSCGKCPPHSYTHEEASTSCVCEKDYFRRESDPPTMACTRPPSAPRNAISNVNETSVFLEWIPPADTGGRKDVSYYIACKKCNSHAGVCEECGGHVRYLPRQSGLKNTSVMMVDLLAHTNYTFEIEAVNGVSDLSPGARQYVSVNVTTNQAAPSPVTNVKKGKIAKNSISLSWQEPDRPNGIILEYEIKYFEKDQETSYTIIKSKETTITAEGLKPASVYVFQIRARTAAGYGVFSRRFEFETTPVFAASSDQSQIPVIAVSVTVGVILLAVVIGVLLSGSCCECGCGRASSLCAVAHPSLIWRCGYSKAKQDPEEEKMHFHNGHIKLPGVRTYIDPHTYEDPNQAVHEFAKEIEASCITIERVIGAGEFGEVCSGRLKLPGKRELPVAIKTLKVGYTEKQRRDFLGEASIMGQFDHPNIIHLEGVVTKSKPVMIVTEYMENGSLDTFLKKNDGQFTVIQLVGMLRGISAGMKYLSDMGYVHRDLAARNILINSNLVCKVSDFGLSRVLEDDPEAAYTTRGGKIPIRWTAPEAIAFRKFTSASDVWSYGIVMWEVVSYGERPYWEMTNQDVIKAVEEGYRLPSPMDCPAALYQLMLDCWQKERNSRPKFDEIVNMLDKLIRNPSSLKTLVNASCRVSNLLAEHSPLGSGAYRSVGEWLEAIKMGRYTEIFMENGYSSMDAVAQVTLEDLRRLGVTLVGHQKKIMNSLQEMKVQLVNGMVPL
Fibroblast growth factor receptor 3, sequence (P22607 23-806 limits assumed): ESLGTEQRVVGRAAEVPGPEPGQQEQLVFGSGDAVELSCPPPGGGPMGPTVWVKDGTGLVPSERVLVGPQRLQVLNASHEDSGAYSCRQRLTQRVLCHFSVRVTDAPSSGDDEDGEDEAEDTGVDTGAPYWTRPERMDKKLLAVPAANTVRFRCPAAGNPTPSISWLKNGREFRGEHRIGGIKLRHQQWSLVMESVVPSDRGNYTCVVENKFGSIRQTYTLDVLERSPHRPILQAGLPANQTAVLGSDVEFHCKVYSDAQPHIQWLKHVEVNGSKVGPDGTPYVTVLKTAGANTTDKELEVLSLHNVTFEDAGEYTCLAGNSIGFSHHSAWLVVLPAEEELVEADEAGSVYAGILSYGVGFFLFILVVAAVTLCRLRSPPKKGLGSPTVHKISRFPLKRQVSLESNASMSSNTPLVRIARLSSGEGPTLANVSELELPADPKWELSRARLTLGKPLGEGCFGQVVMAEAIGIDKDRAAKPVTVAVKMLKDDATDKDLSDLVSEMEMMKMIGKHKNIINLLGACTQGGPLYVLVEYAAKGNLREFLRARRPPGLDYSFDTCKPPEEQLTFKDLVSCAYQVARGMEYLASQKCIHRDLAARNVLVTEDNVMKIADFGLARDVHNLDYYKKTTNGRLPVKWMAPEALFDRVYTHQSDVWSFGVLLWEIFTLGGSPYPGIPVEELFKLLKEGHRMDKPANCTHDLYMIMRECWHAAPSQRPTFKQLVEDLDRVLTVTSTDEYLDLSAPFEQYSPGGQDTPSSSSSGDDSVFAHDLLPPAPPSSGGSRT
Casein kinase I isoform delta, sequence (P48730 whole entry, looked up, canonical isoform): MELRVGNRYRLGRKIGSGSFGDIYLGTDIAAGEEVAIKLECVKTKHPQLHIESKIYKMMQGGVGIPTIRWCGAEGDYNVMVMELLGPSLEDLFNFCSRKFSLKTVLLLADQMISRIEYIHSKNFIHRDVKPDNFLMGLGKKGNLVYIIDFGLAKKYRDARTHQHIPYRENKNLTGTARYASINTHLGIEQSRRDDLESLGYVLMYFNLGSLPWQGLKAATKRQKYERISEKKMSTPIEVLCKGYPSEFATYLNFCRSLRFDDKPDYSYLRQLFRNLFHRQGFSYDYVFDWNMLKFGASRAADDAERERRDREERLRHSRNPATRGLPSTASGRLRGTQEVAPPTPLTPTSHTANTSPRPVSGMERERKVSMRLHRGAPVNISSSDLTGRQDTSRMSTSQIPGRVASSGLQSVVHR
Serine/threonine-protein kinase SIK1 (Homo sapiens), sequence (P57059 whole entry): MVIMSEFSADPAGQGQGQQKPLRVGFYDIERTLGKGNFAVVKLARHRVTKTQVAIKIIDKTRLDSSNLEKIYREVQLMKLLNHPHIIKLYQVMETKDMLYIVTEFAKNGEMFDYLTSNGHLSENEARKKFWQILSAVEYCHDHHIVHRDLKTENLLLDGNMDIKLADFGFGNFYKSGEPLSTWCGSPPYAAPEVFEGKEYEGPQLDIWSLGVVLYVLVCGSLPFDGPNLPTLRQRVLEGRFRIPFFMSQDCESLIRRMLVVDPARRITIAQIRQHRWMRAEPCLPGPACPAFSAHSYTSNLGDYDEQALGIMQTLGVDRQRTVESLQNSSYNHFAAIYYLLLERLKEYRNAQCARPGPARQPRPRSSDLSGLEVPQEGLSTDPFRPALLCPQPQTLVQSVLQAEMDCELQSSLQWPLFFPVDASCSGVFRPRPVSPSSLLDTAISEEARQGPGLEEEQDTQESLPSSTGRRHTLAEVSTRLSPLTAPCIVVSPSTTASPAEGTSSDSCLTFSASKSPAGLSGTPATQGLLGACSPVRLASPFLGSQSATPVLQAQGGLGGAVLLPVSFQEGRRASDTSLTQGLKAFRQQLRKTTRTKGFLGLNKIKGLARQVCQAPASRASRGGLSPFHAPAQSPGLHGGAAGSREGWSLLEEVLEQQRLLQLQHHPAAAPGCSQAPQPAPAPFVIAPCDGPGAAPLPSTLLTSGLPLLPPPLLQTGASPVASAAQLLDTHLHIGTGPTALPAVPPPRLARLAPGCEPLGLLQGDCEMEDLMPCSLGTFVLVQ
Calcium/calmodulin-dependent protein kinase type 1 (Homo sapiens), sequence (Q14012 whole entry, looked up): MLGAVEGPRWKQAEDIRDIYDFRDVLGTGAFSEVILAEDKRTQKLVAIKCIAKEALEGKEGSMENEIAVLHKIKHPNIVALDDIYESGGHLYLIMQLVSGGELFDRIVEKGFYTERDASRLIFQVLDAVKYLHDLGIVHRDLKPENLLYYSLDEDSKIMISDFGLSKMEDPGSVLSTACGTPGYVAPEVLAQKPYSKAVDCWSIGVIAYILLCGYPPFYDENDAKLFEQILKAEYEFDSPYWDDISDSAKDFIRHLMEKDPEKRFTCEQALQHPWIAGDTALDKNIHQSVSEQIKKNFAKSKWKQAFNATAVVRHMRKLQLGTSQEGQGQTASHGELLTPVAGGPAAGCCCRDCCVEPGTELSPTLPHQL

In assay [1], `C=CC(=O)Nc1cccc(C(=O)Nc2ccc(Nc3cc(-c4[nH]c(SC)nc4C)ccn3)cc2)c1` gave a % of control of 88%. In assay [2], `Cc1cc([C@@H](C)Nc2ccccc2C(=O)O)c2nc(N3CCOCC3)cc(=O)n2c1` [AZD-6482] had a % of control of 99%. In the case of `CN(C)C/C=C/C(=O)Nc1ccc(C(=O)N2CCCC(Nc3ncc(Cl)c(-c4c[nH]c5ccccc45)n3)C2)cc1` (stereo not drawn), the % of control in assay [3] stood at 78%. In assay [4], `CC(=O)Nc1cccc(-n2c(=O)n(C3CC3)c(=O)c3c(Nc4ccc(I)cc4F)n(C)c(=O)c(C)c32)c1` registered a % of control of 105%. Take `CCC(=O)N1CCN(c2ccc(-n3c(=O)ccc4cnc5ccc(-c6cnc7ccccc7c6)cc5c43)cc2C(F)(F)F)CC1`: the % of control is 80% in assay [5] and 50% in assay [6]. Take `Cc1cc(F)c(C(=O)Nc2cccc(-c3nncn3C(C)C)n2)cc1-n1cnc(C2CC2)c1`: the % of control in assay [7] was 80%. Usually IC50 stands for the concentration at which inhibition is half-maximal. Lower therefore signals higher potency. The compound `CCc1cccc(CC)c1NC(=O)c1nn(C)c2c1CCc1cnc(Nc3ccc(C(=O)NC4CCN(C)CC4)cc3OC(F)(F)F)nc1-2` displayed an IC50 in assay [8] of more than 10 µM.

Values taken from ChEMBL document CHEMBL5465560, “Selectivity Literature for EUbOPEN Chemogenomic Library” (2024).
